Values of other authors in patent US20090270472A1, “METHOD TO USE OXYMETAZOLINE TO INTERRUPT THE DEVELOPMENT OF THE COMMON COLD SYNDROME” (priority 2008, published 2009).

Conditions: subjects with acute rhinitis; six (6) days with saline placebo

Cc1cc(C(C)(C)C)c(O)c(C)c1CC1=NCCN1 [oxymetazoline]
duration of rhinitis: 4 days
